Data from publication PMC9287337 (Scientific Reports, 2022).
Where two headings read alike, the source gives them in different places.

How the values were obtained:
Type in all cases: cell-based, mouse
[1] = system: p-Akt cytoplasmic localization; test: Immunofluorescent labeling of p-Akt; conditions: 1 µM, 15 min
Procedure: To ascertain whether these novel indolyl-benzimidazole compounds can also activate non-canonical BMP-related pathways, stimulation of the PI3K/Akt pathway was assessed by first monitoring changes in the level of p-Akt in response to SY-LB-35 and SY-LB-57.

p-JNK = test: Western blot of p-JNK; conditions: 0.01–10 µM, 15 min
Procedure: Whole cell lysates were prepared from the treated cultures for Western blot analysis.
(§1) C2C12 cells (3 mL) were seeded into 35 mm dishes at 7.5 × 10^4 cells/mL in complete growth medium, incubated to reach 80% confluence and serum-starved for 16–18 h. […] Thereafter, the cultures were washed with ice-cold 1X TBS for 2 min. Lysis Buffer (Cell Signaling Technology, Danvers, MA, USA) supplemented with 1 mM PMSF (phenylmethylsulphonyl fluoride) was added to the cultures and whole cell lysates were prepared.
Laemmli sample buffer (4X) was added to the whole cell lysates (20 µg) to a final concentration of 1X and heated at 100 °C for 5 min. The samples were immediately cooled on ice for 5 min and centrifuged at 9500 rpm for 2 min at RT. The samples and the Precision Plus Protein Standard (5 µL; Bio-Rad, Hercules, CA, USA) were loaded on 12% SDS polyacrylamide gels. […] Finally, the blots were developed using SuperSignal ™ West Femto HRP Substrate solutions (Thermo Scientific, Rockford, IL, USA) and analysed using the Omega Lum™ G Imaging System (San Francisco, CA, USA). Quantification of chemiluminescent signals was carried out using ImageJ (Image Processing and Analysis in Java 1.8.0_112).

C2C12 cells = test: Cell cycle analysis by flow cytometry; conditions: 24 h
Procedure: C2C12 cells were starved in SS medium followed by 24-h treatment with 0.01–10 µM SY-LB-35 or SY-LB-57. The distribution of cell cycle phases was analyzed with respect to the control, untreated cells (Fig. 9). […] Furthermore, the percentage of cells in G0/G1 phase decreased with respect to control following the treatment of C2C12 cells with the indolyl-benzimidazole compounds (****p < 0.0005; ***p < 0.001; **p < 0.01; Fig. 9A). Thus, SY-LB-35 and SY-LB-57 at all tested concentrations shifted the cell cycle in C2C12 cells toward proliferation causing a significant decline in the population of cells in G0/G1 phase and a sharp increase in the percentage of cells present in proliferative phases of the cell cycle (S and G2/M).
Equal numbers (~ 10^6) of cells, from each treatment counted as above were collected, fixed with 4% paraformaldehyde (PFA) for 10 min at RT and pelleted at 300 g for 5 min. Cell pellets were washed with Stain buffer (BD Pharmingen, San Diego, CA, USA) followed by permeabilization with 90% ice-cold methanol for 15 min at 4 °C. The cells were again washed with Stain buffer and the pelleted cells were stained with BD Pharmingen Propidium Iodide/RNase Staining Buffer (0.5 mL/10^6 cells) for 30 min at RT while protected from light. Following two more washes, the pellet was resuspended in 225 µL Stain buffer and the cells were divided into 3 microcentrifuge tubes (75 µL each) for analysis with the Amnis® Flowsight Imaging Flow Cytometer (Austin, TX, USA). IDEAS® software (version 6.2, Seattle, WA, USA) was used to analyse the data files.

[2] = system: type I BMP receptor-dependent p-Smad; test: Western blot of p-Smad in presence or absence of Dorsomorphin; conditions: 1 µM, 30 min; for p-Smad level, DM(+): Dorsomorphin 10 µM pretreatment 1 h; for p-Smad level, DM(−): without Dorsomorphin
Procedure: Total whole cell lysates were prepared and used for Western blot analysis of Smad phosphorylation using anti-p-Smad antibodies.
as §1
Laemmli sample buffer (4X) was added to the whole cell lysates (20 µg) to a final concentration of 1X and heated at 100 °C for 5 min. The samples were immediately cooled on ice for 5 min and centrifuged at 9500 rpm for 2 min at RT. The samples and the Precision Plus Protein Standard (5 µL; Bio-Rad, Hercules, CA, USA) were loaded on 12% SDS polyacrylamide gels. Protein was separated using the Bio-Rad Mini Protean II Gel Electrophoresis System at 135 V. Meanwhile, 0.2 µm nitrocellulose membranes were pre-incubated in cold 1X Transfer Buffer (10 mM Tris/2.5 mM glycine/20% methanol) for at least 30 min. Next, the separated proteins were transferred at 100 V onto the pre-equilibrated nitrocellulose membranes for 1 h in Transfer Buffer, followed by blocking in 5% BSA/0.1% Tween 20/1X TBS for 30 min. The membranes were incubated overnight at 4 °C with the desired primary rabbit monoclonal antibody (p-Smad1/5(S463/465)/9(S465/467), Smad1 (D5907) XP®, p-Akt (Ser473) (D9E) XP®, or Akt (pan) (C67E7), p-SAPK/JNK (Thr183/Tyr185), SAPK/JNK, β-actin (Cell Signaling Technologies, Danvers, MA, USA)) or rabbit polyclonal antibody (phospho-PI3 Kinase p85 (Tyr458)/p55 (Tyr199) antibody (Cell Signaling Technologies, Danvers, MA, USA), p-p38 MAPK, p38 MAPK, p-ERK1, ERK1/2) (Abclonal, Woburn, MA, USA)) in Antibody Dilution Buffer (1% BSA/0.1% Tween 20/1X TBS) and then washed with 1X TBST (0.1% Tween 20/1X TBS) three times for 15 min. HRP-conjugated Goat Anti-Rabbit IgG secondary antibody (Santa Cruz Biotechnology, Inc., Dallas, TX, USA) in Antibody Dilution Buffer was added to the membranes for 1 h at RT followed by three 15-min washes with 1X TBST. Finally, the blots were developed using SuperSignal ™ West Femto HRP Substrate solutions (Thermo Scientific, Rockford, IL, USA) and analysed using the Omega Lum™ G Imaging System (San Francisco, CA, USA). Quantification of chemiluminescent signals was carried out using ImageJ (Image Processing and Analysis in Java 1.8.0_112).

[3] = Cell viability assay in presence or absence of Dorsomorphin; conditions: mouse, serum-starved C2C12 cells
Procedure: To resolve whether the SY-LB-35 or SY-LB-57 compound requires type I BMP receptor activity for the induction of cell viability in C2C12 cells, cell viability assays were carried out in the presence or absence of 10 µM DM.
C2C12 cells (100 µL) were seeded in a 96-well plate at 5 × 10^5 cells/mL and incubated overnight in complete growth media to achieve 80% confluency followed by serum-starvation for 16–18 h. […] For BMP receptor inhibition, cell viability assays were carried out in presence or absence of Dorsomorphin (DM; 10 µM; Sigma Aldrich, St. Louis, MO, USA), a non-selective inhibitor of type I BMP receptor activity.
Next, reagents from the RealTime-Glo™ MT Cell Viability Assay Kit (Promega, Madison, WI, USA) were diluted in SS medium and used according to manufacturer’s protocol. Cellular luminescence was measured using the FilterMax F5 Multi-mode Microplate Reader (Molecular Devices, San Jose, CA, USA). Data from three independent experiments with individual experiments carried out in triplicate was determined and reported as a percentage of control.

[4] = Dorsomorphin 10 µM, read-out: Cell viability, DM(+)
[5] = without Dorsomorphin, read-out: Cell viability, DM(−)

Compound | p-Akt immunofluorescent labeling [1] | p-JNK level (p-JNK) | Cells in G0/G1 phase (C2C12 cells; 0.01 µM) [%] | Cells in G2/M phase (C2C12 cells; 0.01 µM) [%] | Cells in S phase (C2C12 cells; 0.01 µM) [%] | Cells in G0/G1 phase (C2C12 cells; 0.1 µM) [%] | Cells in G2/M phase (C2C12 cells; 0.1 µM) [%] | Cells in S phase (C2C12 cells; 0.1 µM) [%] | Cells in G0/G1 phase (C2C12 cells; 1 µM) [%] | Cells in G2/M phase (C2C12 cells; 1 µM) [%] | Cells in S phase (C2C12 cells; 1 µM) [%] | Cells in G0/G1 phase (C2C12 cells; 10 µM) [%] | Cells in G2/M phase (C2C12 cells; 10 µM) [%] | Cells in S phase (C2C12 cells; 10 µM) [%] | p-Smad level, DM(+) [2] [%] | p-Smad level, DM(−) [2] [%] | viability at 24 h, 0.01 µM [3, 4] [%] | viability at 24 h, 0.01 µM [3, 5] [%] | viability at 24 h, 0.1 µM [3, 4] [%] | viability at 24 h, 0.1 µM [3, 5] [%] | other results
Oc1ccc2[nH]c(-c3nc4ccccc4[nH]3)cc2c1 [SY-LB-35] | robust, punctate, cytoplasmic p-Akt labeling | stimulated increases | 76 | 13 | 11 | 76 | 12 | 12 | 77 | 11 | 12 | 76 | 11 | 12 | 112 | 315 | 98 | 266 | 103 | 269 | viability at 24 h, 1 µM [3, 4]: 102%; viability at 24 h, 1 µM [3, 5]: 218%; viability at 24 h, 10 µM [3, 4]: 82%; viability at 24 h, 10 µM [3, 5]: 147%; viability at 24 h, 100 µM [3, 4]: 30%; viability at 24 h, 100 µM [3, 5]: 69%
COc1ccc2[nH]c(-c3nc4ccccc4[nH]3)cc2c1 [SY-LB-57] | robust, punctate, cytoplasmic p-Akt labeling | stimulated increases | 76 | 13 | 13 | 76 | 11 | 14 | 77 | 11 | 12 | 79 | 10 | 13 | 111 | 172 | 120 | 384 | 107 | 380 | viability at 24 h, 1 µM [3, 4]: 111%; viability at 24 h, 1 µM [3, 5]: 321%; viability at 24 h, 10 µM [3, 4]: 111%; viability at 24 h, 10 µM [3, 5]: 289%
